# From patent publication US6444677B2, “5-membered heteroaryl substituted 1,4-dihydropyridine compounds as bradykinin antagonists” (Pfizer Inc., priority 1999, dated 2002)
# Structures can show the parent of a compound that is named as a salt.
row,Structure (SMILES),melting point
1,"COC(=O)C1=C(CCc2nccs2)NC(CC(=O)N2CCN(CC3(N)CCCCC3)CC2)=C(C(=O)OC)C1c1c(Cl)cccc1Cl (stereo not drawn) (as salt: HCl) [Example 6, Dimethyl 2-[2-[4-[(1-aminocyclohexyl)methyl]-1-piperazinyl]-2-oxoethyl]4-(2,6-dichlorophenyl)-6-[2-(1,3-thiazol-2-yl)ethyl]-1,4-dihydro-3,5-pyridinedicarboxylate]",210 to 220 °C (dec.)
2,"COC(=O)C1=C(CCc2nccs2)NC(CC(=O)N2CCN(CC3(CNC4CCCC4)CCCC3)CC2)=C(C(=O)OC)C1c1c(Cl)cccc1Cl (stereo not drawn) (as salt: HCl) [Example 11, Dimethyl 2-[2-[4-[[1-[(cyclopentylamino)methyl]cyclopentyl]methyl]-1-piperazinyl]-2-oxoethyl]-4-(2,6dichlorophenyl)-6-[2-(1,3-thiazol-2-yl)ethyl]-1,4-dihydro-3,5-pyridinedicarboxylate]",174 to 177 °C (dec.)
3,"COC(=O)C1=C(CCc2nccs2)NC(CC(=O)N2CCN(CCC(C)(C)N3CCCC3=O)CC2)=C(C(=O)OC)C1c1c(Cl)cccc1Cl (stereo not drawn) (as salt: HCl) [Example 20, Dimethyl 4-(2,6-dichlorophenyl)-2-[2-[4-[3-methyl-3-(2-oxo-1-pyrrolidinyl)butyl]-1-piperazinyl]-2-oxoethyl]-6-[2-(1,3-thiazol-2-yl)ethyl]-1,4-dihydro-3,5-pyridinedicarboxylate]",179 °C (dec.)
